Measurements reported in patent US20040121316A1 (priority 2002, published 2004).
Where two headings read alike, the source gives them in different places.

Columns and labels:
84V90M HIV protease = 84V90M HIV protease (Human immunodeficiency virus type 1 group M subtype B, UniProt P04585, I572V/L578M); assay: biochemical; set-up: species or system HIV-1
HIV-1 84V90M = assay: microbe, parasite or virus in culture; format: cell-based; details: Human immunodeficiency virus 1, read-out: Cell-based assay (MT-4) EC50/nM 84V90M
HIV-1 30N82I88D = assay: microbe, parasite or virus in culture; format: cell-based
WT HIV-1 [1] = assay: microbe, parasite or virus in culture; format: cell-based
HIV-1 48V82A90M = assay: microbe, parasite or virus in culture; format: cell-based
HIV-1 48V54V82A = assay: microbe, parasite or virus in culture; format: cell-based
HIV-1 46I50V = assay: microbe, parasite or virus in culture; format: cell-based
HIV-1 48V54V82S = assay: microbe, parasite or virus in culture; format: cell-based
[2] = system: recombinant HIV-1 10I 48V 54V 82A; assay: microbe, parasite or virus in culture; format: cell-based
WT HIV-1 [3] = assay: microbe, parasite or virus in culture; format: cell-based; remark: listed apart in the source
[4] = system: recombinant HIV-1 30N 50S 82I 88D; assay: microbe, parasite or virus in culture; format: cell-based
[5] = system: recombinant HIV-1 46I 47V 50V; assay: microbe, parasite or virus in culture; format: cell-based
[6] = system: recombinant HIV-1 10I 48V 71V 82A 90M; assay: microbe, parasite or virus in culture; format: cell-based
[7] = system: recombinant HIV-1 48V 54V 71V 82S; assay: microbe, parasite or virus in culture; format: cell-based
[8] = system: recombinant HIV-1 10I 84V 71V 73S 90M; assay: microbe, parasite or virus in culture; format: cell-based; details: Human immunodeficiency virus 1, MT4, read-out: Cell-based assay (MT-4) EC50/nM 84V 90M
[9] = system: recombinant HIV-1 strains with resistance mutations in the protease gene; assay: Cross-Resistance Profile Assay, whole panel; format: cell-based; details: {}
[10] = system: wild-type HIV-1 strain IIIB; assay: microbe, parasite or virus in culture; format: cell-based; details: Human immunodeficiency virus 1, IIIB
[11] = Human immunodeficiency virus 1, read-out: Cell-based assay (MT-4) EC50/nM 30N82I88D
[12] = Human immunodeficiency virus 1, read-out: Cell-based assay (MT-4) EC50/nM WT
[13] = Human immunodeficiency virus 1, read-out: Cell-based assay (MT-4) EC50/nM 48V82A90M
[14] = Human immunodeficiency virus 1, read-out: Cell-based assay (MT-4) EC50/nM 48V54V82A
[15] = Human immunodeficiency virus 1, read-out: Cell-based assay (MT-4) EC50/nM 46I50V
[16] = Human immunodeficiency virus 1, read-out: Cell-based assay (MT-4) EC50/nM 48V54V82S
[17] = Human immunodeficiency virus 1, MT4, read-out: Cell-based assay (MT-4) EC50/nM 48V 54V 82A
[18] = Human immunodeficiency virus 1, MT4, read-out: Cell-based assay (MT-4) EC50/nM WT
[19] = Human immunodeficiency virus 1, MT4, read-out: Cell-based assay (MT-4) EC50/nM 30N 82I 88D
[20] = Human immunodeficiency virus 1, MT4, read-out: Cell-based assay (MT-4) EC50/nM 47I 50V
[21] = Human immunodeficiency virus 1, MT4, read-out: Cell-based assay (MT-4) EC50/nM 48V 82A 90M
[22] = Human immunodeficiency virus 1, MT4, read-out: Cell-based assay (MT-4) EC50/nM 48V 54V 82S

**Q.** Which results are given for `O=C(O)c1cccc(CN2C(=O)N(Cc3ccc(O)cc3)C(Cc3ccccc3)C(O)C(O)C2Cc2ccccc2)c1` (stereo not shown)?
**A.** IC50 (84V90M HIV protease): 174 nM; EC50 (HIV-1 84V90M): > 6000 nM; EC50 (HIV-1 30N82I88D; [11]): 887 nM; EC50 (WT HIV-1 [1]; [12]): 3060 nM

**Q.** `CCOP(=O)(COc1ccc(CC2C(O)C(O)C(Cc3ccccc3)N(Cc3ccccc3)C(=O)N2Cc2ccccc2)cc1)OCC` (stereo not shown) [listing 1 of 2 here] was tested. Which IC50 (84V90M HIV protease) did it give?
**A.** The IC50 was 48 nM.

**Q.** And the EC50 (HIV-1 84V90M)?
**A.** The EC50 was 2460 nM.

**Q.** What about the EC50 (HIV-1 48V82A90M; [13]) of the same compound?
**A.** The EC50 was 3290 nM.

**Q.** What about the EC50 (HIV-1 48V54V82A; [14]) of the same compound?
**A.** Its EC50 is 1440 nM.

**Q.** What about the EC50 (HIV-1 46I50V; [15]) of the same compound?
**A.** Its EC50 is 589 nM.

**Q.** And the EC50 (HIV-1 48V54V82S; [16])?
**A.** The EC50 was 1900 nM.

**Q.** What about the EC50 (HIV-1 30N82I88D; [11]) of the same compound?
**A.** The EC50 was 293 nM.

**Q.** For `CCOP(=O)(COc1ccc(CC2C(O)C(O)C(Cc3ccccc3)N(Cc3ccccc3)C(=O)N2Cc2ccccc2)cc1)OCC` (stereo not shown) [listing 2 of 2 here], which EC50 ([2]; MT-4 cells, strain printed as 48V 54V 82A, read-out: Cell-based assay (MT-4) EC50/nM 48V 54V 82A) is on record?
**A.** Its EC50 is 1440 nM.

**Q.** What about the EC50 (WT HIV-1 [3]; MT-4 cells, WT, read-out: Cell-based assay (MT-4) EC50/nM WT) of the same compound?
**A.** Its EC50 is 107 nM.

**Q.** And the EC50 ([4]; MT-4 cells, strain printed as 30N 82I 88D, read-out: Cell-based assay (MT-4) EC50/nM 30N 82I 88D)?
**A.** Its EC50 is 293 nM.

**Q.** And the EC50 ([5]; MT-4 cells, strain printed as 47I50V, read-out: Cell-based assay (MT-4) EC50/nM 47I 50V)?
**A.** The EC50 was 589 nM.

**Q.** And the EC50 ([6]; read-out: Cell-based assay (MT-4) EC50/nM 48V 82A 90M, MT-4 cells, strain printed as 48V 82A 90M)?
**A.** The EC50 was 3290 nM.

**Q.** And the EC50 ([7]; MT-4 cells, strain printed as 48V 54V 82S, read-out: Cell-based assay (MT-4) EC50/nM 48V 54V 82S)?
**A.** Its EC50 is 1900 nM.

**Q.** Which results are given for `CCOP(=O)(COCCCCN1C(=O)N(Cc2ccc3[nH]nc(N)c3c2)C(Cc2ccccc2)C(O)C(O)C1Cc1ccccc1)OCC` (stereo not shown) [CH2OCH2PO3Et2]?
**A.** IC50 (84V90M HIV protease): 123 nM; EC50 (HIV-1 84V90M): 3300 nM; EC50 (HIV-1 48V54V82A; [14]): 430 nM; EC50 (HIV-1 30N82I88D; [11]): 267 nM; EC50 (WT HIV-1 [1]; [12]): 119 nM

**Q.** What does the source list for `CCCCN1C(=O)N(Cc2ccc3[nH]nc(N)c3c2)C(Cc2ccccc2)C(O)C(O)C1Cc1ccccc1` (stereo not shown) [DMP-851]?
**A.** EC50 (HIV-1 48V82A90M; MT-4, 48V82A90M, read-out: Cell-based assay (MT-4) EC50/nM 48V82A90M): 22 nM; EC50 (HIV-1 48V54V82A; MT-4, 48V54V82A, read-out: Cell-based assay (MT-4) EC50/nM 48V54V82A): 33 nM; EC50 (HIV-1 46I50V; MT-4, 46I50V, read-out: Cell-based assay (MT-4) EC50/nM 46I50V): 17 nM; EC50 (HIV-1 48V54V82S; MT-4, 48V54V82S, read-out: Cell-based assay (MT-4) EC50/nM 48V54V82S): 30 nM; EC50 (HIV-1 30N82I88D; MT-4, 30N82I88D, read-out: Cell-based assay (MT-4) EC50/nM 30N82I88D): 69 nM; EC50 (WT HIV-1 [1]; read-out: Cell-based assay (MT-4) EC50/nM WT): 54 nM

**Q.** `CCOP(=O)(COc1ccc(CC2C(O)C(O)C(Cc3ccccc3)N(Cc3cccc(N)c3)C(=O)N2Cc2cccc(N)c2)cc1)OCC` (stereo not shown) [H, Ph-mNH2, OCH2PO3Et2] was tested. Which EC50 (HIV-1 84V90M) did it give?
**A.** The EC50 was 328 nM.

**Q.** And the EC50 (HIV-1 48V82A90M; [13])?
**A.** The EC50 was 74 nM.

**Q.** What about the EC50 (HIV-1 48V54V82A; [14]) of the same compound?
**A.** Its EC50 is 168 nM.

**Q.** And the EC50 (HIV-1 46I50V; [15])?
**A.** Its EC50 is 46 nM.

**Q.** And the EC50 (HIV-1 48V54V82S; [16])?
**A.** Its EC50 is 146 nM.

**Q.** What about the EC50 (HIV-1 30N82I88D; [11]) of the same compound?
**A.** The EC50 was 16 nM.

**Q.** What does the source list for `CCOP(=O)(COc1ccc(CC2C(O)C(O)C(Cc3ccccc3)N(Cc3ccc(O)cc3)C(=O)N2Cc2ccc(O)cc2)cc1)OCC` (stereo not shown) [H, Ph-pOH, OCH2PO3Et2]?
**A.** EC50 (HIV-1 48V82A90M; [13]): 126 nM; EC50 (HIV-1 48V54V82A; [14]): 128 nM; EC50 (HIV-1 46I50V; [15]): 144 nM; EC50 (HIV-1 48V54V82S; [16]): 198 nM; EC50 (HIV-1 30N82I88D; [11]): 90 nM

**Q.** `CCOP(=O)(COc1ccc(CC2C(O)C(O)C(Cc3ccccc3)N(Cc3cccc(N)c3)C(=O)N2Cc2cccc(N)c2)cc1)OCC` (stereo not shown) [H/Ph-mNH2/OCH2PO3Et2] was tested. Which EC50 [2, 17] did it give?
**A.** Its EC50 is 168 nM.

**Q.** What about the EC50 [8] of the same compound?
**A.** The EC50 was 328 nM.

**Q.** What about the EC50 (WT HIV-1 [3]; [18]) of the same compound?
**A.** The EC50 was 65 nM.

**Q.** What about the EC50 [4, 19] of the same compound?
**A.** Its EC50 is 16 nM.

**Q.** And the EC50 [5, 20]?
**A.** The EC50 was 46 nM.

**Q.** What about the EC50 [6, 21] of the same compound?
**A.** The EC50 was 74 nM.

**Q.** What about the EC50 [7, 22] of the same compound?
**A.** The EC50 was 146 nM.

**Q.** How did the EC50 [2, 17] turn out when `CCOP(=O)(COc1ccc(CC2C(O)C(O)C(Cc3ccccc3)N(Cc3ccc(O)cc3)C(=O)N2Cc2ccc(O)cc2)cc1)OCC` (stereo not shown) [H/Ph-pOH/OCH2PO3Et2] was run?
**A.** Its EC50 is 128 nM.

**Q.** What about the EC50 (WT HIV-1 [3]; [18]) of the same compound?
**A.** The EC50 was 65 nM.

**Q.** And the EC50 [4, 19]?
**A.** Its EC50 is 90 nM.

**Q.** And the EC50 [5, 20]?
**A.** Its EC50 is 144 nM.

**Q.** What about the EC50 [6, 21] of the same compound?
**A.** Its EC50 is 146 nM.

**Q.** And the EC50 [7, 22]?
**A.** Its EC50 is 222 nM.

**Q.** For `O=C1N(Cc2ccccc2)C(Cc2ccccc2)C(O)C(O)C(Cc2ccc(O)cc2)N1Cc1ccccc1` (stereo not shown) [H/Ph/OH], which EC50 [2, 17] is on record?
**A.** The EC50 was > 6000 nM.

**Q.** What about the EC50 [8] of the same compound?
**A.** The EC50 was > 6000 nM.

**Q.** And the EC50 (WT HIV-1 [3]; [18])?
**A.** The EC50 was 1260 nM.

**Q.** What about the EC50 [4, 19] of the same compound?
**A.** The EC50 was 2950 nM.

**Q.** How did the “Total No. of Resistant Viruses” value [9] turn out when `CC(C)(C)NC(=O)[C@@H]1CN(Cc2cccnc2)CCN1C[C@@H](O)C[C@@H](Cc1ccccc1)C(=O)N[C@H]1c2ccccc2C[C@H]1O` [Indinavir, reference compound] was run?
**A.** The value was 8.

**Q.** And the EC50 [10]?
**A.** Its EC50 is < 50 nM.
